Measurements reported in US7268128B2, “1,3,5-trisubstituted-5-phenyl and 5-pyridyl pyrazolopyrimidinone derivatives having PDE7 inhibiting action” (Ausbio Pharma Co., Ltd., priority 2001, dated 2007).
Counter-ions that a name gives are not always drawn.

What follows are compounds tested against T1, PDE7 (type VII phosphodiesterase) (Homo sapiens, UniProt Q13946) (assay: PDE7 inhibiting activity (3H-cAMP hydrolysis, active fraction from MOLT-4 cells)). Details: PDE7 fraction from MOLT-4 cells, 0.064 μM cAMP, 10 μM rolipram present, 2 hours at 25° C.; read-out: IC50 values for phosphodiesterase inhibiting activities (PDE7).
T1 construct: endogenous in cells; host or cells: MOLT-4 (ATCC CRL-1582), soluble fraction, HiTrapQ anion-exchange fraction
T1 sequence (Q13946 whole entry): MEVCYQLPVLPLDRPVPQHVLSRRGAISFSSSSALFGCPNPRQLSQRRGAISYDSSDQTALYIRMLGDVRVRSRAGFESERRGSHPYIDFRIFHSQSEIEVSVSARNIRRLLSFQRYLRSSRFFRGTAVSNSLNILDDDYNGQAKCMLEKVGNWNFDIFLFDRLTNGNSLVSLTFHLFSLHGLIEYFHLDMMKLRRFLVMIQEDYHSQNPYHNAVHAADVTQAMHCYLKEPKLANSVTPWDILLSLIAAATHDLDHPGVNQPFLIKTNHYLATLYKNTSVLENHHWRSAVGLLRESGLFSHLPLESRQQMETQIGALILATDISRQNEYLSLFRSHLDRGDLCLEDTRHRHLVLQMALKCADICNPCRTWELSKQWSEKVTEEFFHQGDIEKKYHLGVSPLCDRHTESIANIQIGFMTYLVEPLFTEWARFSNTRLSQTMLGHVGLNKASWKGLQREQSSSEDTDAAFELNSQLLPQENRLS
Format: biochemical
Protocol: To evaluate the compounds of the present invention for the ability to suppress PDE7 (type VII phosphodiesterase), the method of Biochemical Pharmacol. 48(6), 1219-1223 (1994) was partially modified to perform the following assay:
1) PDE7 (type VII phosphodiesterase) active fraction was obtained. That is, human acute lymphoblastoid lymphoma T cell strain MOLT-4 (purchasable from ATCC under ATCC No. CRL-1582) was cultured in RPMI1640 medium containing 10% fetal bovine serum to obtain 5×10^8 MOLT4 cells. The cells were harvested by centrifugation, and suspended in 10 ml of buffer A (25 mM tris-HCl, 5 mM 2-mercaptoethanol, 2 mM benzamidine, 2 mM EDTA, 0.1 mM 4-(2-aminoethyl)benzenesulfonyl hydrochloride, pH 7=7.5). The cells were homogenized in a Polytoron homogenizer, and centrifuged (4° C., 25,000 G, 10 min). The supernatant was further ultracentrifuged (4° C., 100,000 G, 60 min), and the resulting supernatant was filtered through a 0.2 μm filter to obtain a soluble fraction.
2) HiTrapQ column (5 ml×2) equilibrated with buffer A was charged with the resulting soluble fraction. Phosphodiesterase was eluted using 300 ml of buffer A containing a linear gradient solution of 0 to 0.8M sodium chloride to collect sixty 5 ml fractions. Each fraction was tested for cAMP metabolizing phosphodiesterase activity.
3) The test compounds at desired concentrations were each reacted for 2 hours at 25° C. in a reactant mixture containing 20 mM tris-HCl (pH 7.5), 1 mM MgCl2, 100 μM EDTA, 330 μg/ml bovine serum albumin, 4 μg/ml 5′-nucleotidase, 0.1 μCi^3H-cAMP (0.064 μM cAMP), 10 μM rolipram, and the type VII phosphodiesterase stored solution. QAE-Sephadex suspended in 10 mM HEPES-Na (pH 7.0) was added to the reaction mixture, and the mixture was allowed to stand for 5 minutes. Then, the supernatant was recovered, and QAE-Sephadex was further added, followed by allowing the mixture to stand for 5 minutes. Then, the resulting supernatant was measure for radioactivity.
4) IC50, as the concentration of the test compound that inhibited 50% of the metabolic activity of PDE7, was calculated for each of the compounds.

| IC50 [nM] | SMILES |
| --- | --- |
| ≤ 1000 | COc1cc(N2CCC(N(C)C)CC2)ccc1-c1nc2c(C)nn(C3CCCCC3)c2c(=O)[nH]1 [Example 245, 1-Cyclohexyl-5-{4-[4-(dimethylamino)-1-piperidinyl]-2-methoxyphenyl}-3-methyl-1,6-dihydro-7H-pyrazolo[4,3-d]pyrimidin-7-one] |
| ≤ 10 | COc1cc(NC2CCNCC2)ccc1-c1nc2c(C)nn(C3CCCCC3)c2c(=O)[nH]1 [Example 224, 1-Cyclohexyl-5-[2-methoxy-4-(4-piperidinylamino)phenyl]-3-methyl-1,6-dihydro-7H-pyrazolo[4,3-d]pyrimidin-7-one] |
| ≤ 10 | COc1cc(N2CCCNCC2)ccc1-c1nc2c(C)nn(C3CCCCC3)c2c(=O)[nH]1 [Example 125, 1-Cyclohexyl-5-[4-(1,4-diazepan-1-yl)-2-methoxyphenyl]-3-methyl-1,6-dihydro-7H-pyrazolo[4,3-d]pyrimidin-7-one] |
| ≤ 1000 | Cc1nn(C2CCCCC2)c2c(=O)[nH]c(-c3ccc(N4CCN(C)CC4)cc3)nc12 [Example 7, 1-Cyclohexyl-3-methyl-5-[4-(4-methyl-1-piperazinyl)phenyl]-1,6-dihydro-7H-pyrazolo[4,3-d]pyrimidin-7-one] |
| ≤ 1000 | CCNc1ccc(-c2nc3c(C)nn(C4CCCCC4)c3c(=O)[nH]2)c(OC)c1 [Example 275, 1-Cyclohexyl-5-[4-(ethylamino)-2-methoxyphenyl]-3-methyl-1,6-dihydro-7H-pyrazolo[4,3-d]pyrimidin-7-one] |
| ≤ 1000 | CCn1nc(C2CCCCC2)c2c(=O)[nH]c(-c3ccc(N4CCC(NC)CC4)cc3OC)nc21 [Example 196] |
| ≤ 10 | COc1cc(N2CCC(O)CC2)ccc1-c1nc2c(c(C3CCCCC3)nn2C)c(=O)[nH]1 [Example 31, 3-Cyclohexyl-6-[4-(4-hydroxy-1-piperidinyl)-2-methoxyphenyl]-1-methyl-1,5-dihydro-4H-pyrazolo[3,4-d]pyrimidin-4-one] |
| ≤ 10 | CNC1CCN(c2ccc(-c3nc4c(c(C5CCCCC5)nn4C)c(=O)[nH]3)c(OC)c2)CC1 [Example 150, 3-Cyclohexyl-6-{2-methoxy-4-[4-(methylamino)-1-piperidinyl]phenyl}-1-methyl-1,5-dihydro-4H-pyrazolo[3,4-d]pyrimidin-4-one monomethanesulfonate] |
| ≤ 1000 | COc1cc(CCC(=O)O)ccc1-c1nc2c(C)nn(C3CCCCC3)c2c(=O)[nH]1 [Example 229, 3-[4-(1-Cyclohexyl-3-methyl-7-oxo-6,7-dihydro-1H-pyrazolo[4,3-d]pyrimidin-5-yl)-3-methoxyphenyl]propanic acid] |
| ≤ 1000 | CNCCNS(=O)(=O)c1ccc(-c2nc3c(C)nn(C4CCCCC4)c3c(=O)[nH]2)c(OC)c1 [Example 210-2, 4-(1-Cyclohexyl-3-methyl-7-oxo-6,7-dihydro-1H-pyrazolo[4,3-d]pyrimidin-5-yl)-3-methoxy-N-[2-(methylamino)ethyl]benzenesulfonamide] |
| ≤ 1000 | CCOc1cc(N2CCCN(C)CC2)ccc1-c1nc2c(C)nn(C3CCCCC3)c2c(=O)[nH]1 [Example 130, 1-Cyclohexyl-5-[4-(4-methyl-1,4-diazepan-1-yl)-2-ethoxyphenyl]-3-methyl-1,6-dihydro-7H-pyrazolo[4,3-d]pyrimidin-7-one] |
| ≤ 10 | COc1cc(N2CCN(C)CC2)ccc1-c1nc2c(c(C3CCCCC3)nn2C)c(=O)[nH]1 [Example 27, 3-Cyclohexyl-6-[2-methoxy-4-(4-methyl-1-piperazinyl)phenyl]-1-methyl-1,5-dihydro-4H-pyrazolo[3,4-d]pyrimidin-4-one] |
| ≤ 1000 | COc1cc(C2=CCNCC2)ccc1-c1nc2c(C)nn(C3CCCCC3)c2c(=O)[nH]1 [Example 273, 1-Cyclohexyl-5-[2-methoxy-4-(1,2,3,6-tetrahydro-4-pyridinyl)phenyl]-3-methyl-1,6-dihydro-7H-pyrazolo[4,3-d]pyrimidin-7-one monohydrochloride] |

Second part, the compound before the results:

| SMILES | IC50 [nM] |
| --- | --- |
| COc1cc(C(=O)N2CCC(OC)CC2)ccc1-c1nc2c(c(C3CCCCC3)nn2C)c(=O)[nH]1 [Example 70, 3-Cyclohexyl-6-{2-methoxy-4-[(4-methoxy-1-piperidinyl)carbonyl]phenyl}-1-methyl-1,5-dihydro-4H-pyrazolo[3,4-d]pyrimidin-4-one] | ≤ 1000 |
| COc1cc(S(=O)(=O)NCCCO)ccc1-c1nc2c(c(C3CCCCC3)nn2C)c(=O)[nH]1 [Example 159, 4-(3-Cyclohexyl-1-methyl-4-oxo-4,5-dihydro-1H-pyrazolo[3,4-d]pyrimidin-6-yl)-N-(3-hydroxypropyl)-3-methoxybenzenesulfonamide] | ≤ 1000 |
| CCOC(=O)Nc1ccc(-c2nc3c(c(C4CCCCC4)nn3C)c(=O)[nH]2)c(OC)c1 [Example 145, Ethyl 4-(3-cyclohexyl-1-methyl-4-oxo-4,5-dihydro-1H-pyrazolo[3,4-d]pyrimidin-6-yl)-3-methoxyphenylcarbamate] | ≤ 10 |
| CC(=O)Nc1ccc(-c2nc3c(C)nn(C4CCCCC4)c3c(=O)[nH]2)nc1 [Example 12, N-[6-(1-cyclohexyl-3-methyl-7-oxo-1H-pyrazolo[4,3-d]pyrimidin-5-yl)-3-pyridinyl]acetamide] | ≤ 1000 |
| COc1cc(C(=O)N2CCOCC2)ccc1-c1nc2c(c(C3CCCCC3)nn2C)c(=O)[nH]1 [Example 68, 3-Cyclohexyl-6-[2-methoxy-4-(4-morpholinylcarbonyl)phenyl]-1-methyl-1,5-dihydro-4H-pyrazolo[3,4-d]pyrimidin-4-one] | ≤ 1000 |
| COc1cc(S(=O)(=O)N2CCC(O)CC2)ccc1-c1nc2c(c(C3CCCCC3)nn2C)c(=O)[nH]1 [Example 52, 3-Cyclohexyl-6-{4-[(4-hydroxy-1-piperidinyl)sulfonyl]-2-methoxyphenyl}-1-methyl-1,5-dihydro-4H-pyrazolo[3,4-d]pyrimidin-4-one] | ≤ 10 |
| COc1cc(OCCO)ccc1-c1nc2c(c(C3CCCCC3)nn2C)c(=O)[nH]1 [Example 37, 3-Cyclohexyl-6-[4-(2-hydroxyethoxy)-2-methoxyphenyl]-1-methyl-1,5-dihydro-4H-pyrazolo[3,4-d]pyrimidin-4-one] | ≤ 1000 |
| COc1cc(N2CCC3(CC2)OCCO3)ccc1-c1nc2c(c(C3CCCCC3)nn2C)c(=O)[nH]1 [Example 29, 3-Cyclohexyl-6-[4-(1,4-dioxa-8-azaspiro[4,5]deca-8-yl)-2-methoxyphenyl]-1-methyl-1,5-dihydro-4H-pyrazolo[3,4-d]pyrimidin-4-one] | ≤ 1000 |
| CNS(=O)(=O)c1ccc(-c2nc3c(c(C4CCCCC4)nn3C)c(=O)[nH]2)c(OC)c1 [Example 204, 4-(3-Cyclohexyl-1-methyl-4-oxo-4,5-dihydro-1H-pyrazolo[3,4-d]pyrimidin-6-yl)-3-methoxy-N-methylbenzenesulfonamide] | ≤ 1000 |
| COc1cc(N2CCCNCC2)ccc1-c1nc2c(c(C3CCCCC3)nn2C)c(=O)[nH]1 [Example 134, 3-Cyclohexyl-6-[4-(1,4-diazepan-1-yl)-2-methoxyphenyl]-1-methyl-1,5-dihydro-4H-pyrazolo[3,4-d]pyrimidin-4-one monomethanesulfonate] | ≤ 10 |
| COc1cc(C(=O)N2CCN(C)CC2)ccc1-c1nc2c(c(C3CCCCC3)nn2C)c(=O)[nH]1 [Example 67, 3-Cyclohexyl-6-{2-methoxy-4-[(4-methyl-1-piperazinyl)carbonyl]phenyl}-1-methyl-1,5-dihydro-4H-pyrazolo[3,4-d]pyrimidin-4-one monomethanesulfonate] | ≤ 1000 |
